# Peptide text beside a SMILES is read from it.
# Columns and labels:
# HMLER = assay: cells; format: cell-based, human; details: 72 h
# Source text: (§1) […], and MCF-10A cells were maintained in MEGM with supplements and growth factors bovine pituitary extract, hydrocortisone, human epidermal growth factor, insulin, and gentamicin/amphotericin-B.
# HMLER‐shEcad = assay: cells; format: cell-based, human; details: 72 h
# Source text: as §1
# MCF‐10A = assay: cells; format: cell-based, human; details: 72 h
# Source text: as §1
# U2OS = format: cell-based, human; details: 72 h
# HEK293T = assay: cells; format: cell-based, human; details: 72 h
# [1] = Tryptophan fluorescent binding assay; details: tryptophan fluorescence; 50 µM peptide, lipid titrated 0-5000 µM; phosphate buffered saline 1X, pH 7.4; values as lipid per peptide
# Experimental: 50 µM ACP peptides and varied concentrations (concentrations: 0, 25, 50, 100, 150, 200, 250, 500, 1250, and 2500 µM) of POPC or POPC:POPG (3:1 ratio) large unilamellar vesicles were prepared in 10 mM phosphate buffer (pH 7.0). The solutions were measured after 1 h of incubation. Excitation was fixed at 280 nm (slit 9 nm) and emission was collected from 300 to 450 nm (slit 9 nm). The spectra were recorded using Cytation 5 Cell Imaging Multi‐Mode Reader from BioTek and were averaged by three scans.
# Lipid Concentration-induced
# Name Sequence† 50% Peptide Binding (L/P)
# Extended Data Table 3 | Tryptophan binding assay. […]
# peptide binding onto liposome. 50 µM peptides were fixed and incubated with titrated lipid (POPC vesicle […]
# phosphate buffered saline (1X, pH 7.4). The lipid concentration that causes 50 % peptide binding was determined using tryptophan fluorescent binding assay and the values are shown as lipid per peptide.
# [2] = ANTS/DPX liposome leakage assay; details: for Peptide Concentration-induced 50 % ANTS/DPX leakage at pH 4.8 (L/P), 3POPC/1POPG Vesicle / Peptide Concentration-induced 50 % ANTS/DPX leakage at pH 4.8 (L/P), POPC Vesicle / Peptide Concentration-induced 50 % ANTS/DPX leakage at pH 7.4 (L/P), 3POPC/1POPG Vesicle / Peptide Concentration-induced 50 % ANTS/DPX leakage at pH 7.4 (L/P), POPC Vesicle: 0.5 mM vesicles, peptide 0-20 µM, 3 h incubation, lipid per peptide; for Peptide Concentration-induced 50 % ANTS/DPX leakage at pH 4.8 (L/P), 3POPC/1POPG Vesicle / Peptide Concentration-induced 50 % ANTS/DPX leakage at pH 4.8 (L/P), POPC Vesicle: HCl-adjusted PBS 1X pH 4.8; for Peptide Concentration-induced 50 % ANTS/DPX leakage at pH 7.4 (L/P), 3POPC/1POPG Vesicle / Peptide Concentration-induced 50 % ANTS/DPX leakage at pH 7.4 (L/P), POPC Vesicle: PBS 1X pH 7.4, high ratio = more potent
# Experimental: Vesicle preparation: 5 mM ANTS and 12.5 mM DPX were entrapped in 0.1 µm diameter extruded vesicles (either POPC or POPC/POPG at a ratio of 3:1) with lipids. Gel filtration chromatography of Sephadex G‐100 was used to remove external free ANTS/DPX from LUVs with entrapped contents. LUVs were diluted to 0.5 mM and used to measure the leakage activity by the addition of aliquots of ACPs. Leakage was measured after 3 h incubation. 10% Triton was used as the positive control to measure the maximum leakage of the vesicle. Fluorescence emission spectra were recorded using excitation and emission wavelength of 350 and 510 nm for ANTS/DPX using a BioTek Synergy H1 Hybrid Multi‐Mode Reader.
# Peptide Concentration-induced Peptide Concentration-induced
# Name Sequence† 50 % ANTS/DPX leakage 50 % ANTS/DPX leakage at pH 7.4 (L/P) at pH 4.8 (L/P)
# POPC Vesicle 3POPC/1POPG Vesicle POPC Vesicle 3POPC/1POPG Vesicle […]
# Extended Data Table 4 | Peptide concentration-induced 50 % ANTS/DPX liposome leakage. 0.5 mM POPC and 3POPC/1POPG vesicles were fixed and incubated with titrated peptide concentration (0, 0.02, […]
# hydrochloric acid-adjusted phoshate buffered saline (1X, pH 4.8). The values are shown as lipid per
Compound,IC50 (HMLER),IC50 (HMLER‐shEcad),IC50 (MCF‐10A),IC50 (U2OS),IC50 (HEK293T),"Lipid Concentration-induced 50% Peptide Binding (L/P), 3POPC/1POPG Vesicle [1]","Lipid Concentration-induced 50% Peptide Binding (L/P), POPC Vesicle [1]","Peptide Concentration-induced 50 % ANTS/DPX leakage at pH 4.8 (L/P), 3POPC/1POPG Vesicle [2]","Peptide Concentration-induced 50 % ANTS/DPX leakage at pH 4.8 (L/P), POPC Vesicle [2]","Peptide Concentration-induced 50 % ANTS/DPX leakage at pH 7.4 (L/P), 3POPC/1POPG Vesicle [2]","Peptide Concentration-induced 50 % ANTS/DPX leakage at pH 7.4 (L/P), POPC Vesicle [2]","change of ANTS/DPX dye leakage / liposome selectivity at pH 4.8 ([2]; pH = 4.8 compared with physiological pH, anionic versus neutral liposomes)"
CC(C)C[C@H](NC(=O)CN)C(=O)N[C@@H](CC(C)C)C(=O)N[C@@H](Cc1c[nH]cn1)C(=O)N[C@@H](CC(C)C)C(=O)N[C@@H](CC(C)C)C(=O)N[C@@H](CCC(=O)O)C(=O)N[C@@H](CC(C)C)C(=O)N[C@@H](CC(C)C)C(=O)N[C@@H](CC(C)C)C(=O)N[C@@H](Cc1c[nH]cn1)C(=O)N[C@@H](C)C(=O)N[C@@H](C)C(=O)NCC(=O)N[C@@H](Cc1c[nH]c2ccccc12)C(N)=O [HEH] (H-GLLHLLELLLHAAGW-NH2),28.6 ± 10.8 µM,11 ± 1.06 µM,> 200 µM,106 ± 14 µM,8.8 ± 1.7 µM,3.50 L/P,0.88 L/P,24 L/P,173 L/P,505 L/P,995 L/P,increased selectivity for neutral bilayers
CC(C)C[C@H](NC(=O)CN)C(=O)N[C@@H](CC(C)C)C(=O)N[C@@H](Cc1c[nH]cn1)C(=O)N[C@@H](CC(C)C)C(=O)N[C@@H](CC(C)C)C(=O)N[C@@H](CCC(=O)O)C(=O)N[C@@H](CC(C)C)C(=O)N[C@@H](CC(C)C)C(=O)N[C@@H](CC(C)C)C(=O)N[C@@H](CCCCN)C(=O)N[C@@H](C)C(=O)N[C@@H](C)C(=O)NCC(=O)N[C@@H](Cc1c[nH]c2ccccc12)C(N)=O [HEK] (H-GLLHLLELLLKAAGW-NH2),2.35 ± 1.06 µM,3.45 ± 2.19 µM,29.8 ± 7.35 µM,143 ± 80.3 µM,6.95 ± 1.63 µM,0.46 L/P,0.44 L/P,411 L/P,97 L/P,386 L/P,755 L/P,–
CC(C)C[C@H](NC(=O)CN)C(=O)N[C@@H](CC(C)C)C(=O)N[C@@H](Cc1c[nH]cn1)C(=O)N[C@@H](CC(C)C)C(=O)N[C@@H](CC(C)C)C(=O)N[C@@H](Cc1c[nH]cn1)C(=O)N[C@@H](CC(C)C)C(=O)N[C@@H](CC(C)C)C(=O)N[C@@H](CC(C)C)C(=O)N[C@@H](CCC(=O)O)C(=O)N[C@@H](C)C(=O)N[C@@H](C)C(=O)NCC(=O)N[C@@H](Cc1c[nH]c2ccccc12)C(N)=O [HHE] (H-GLLHLLHLLLEAAGW-NH2),16.7 ± 2.26 µM,10.8 ± 0.78 µM,> 200 µM,53.2 ± 5.3 µM,18.4 ± 3.75 µM,0.75 L/P,1.00 L/P,113 L/P,143 L/P,411 L/P,842 L/P,–
CC(C)C[C@H](NC(=O)CN)C(=O)N[C@@H](CC(C)C)C(=O)N[C@@H](Cc1c[nH]cn1)C(=O)N[C@@H](CC(C)C)C(=O)N[C@@H](CC(C)C)C(=O)N[C@@H](Cc1c[nH]cn1)C(=O)N[C@@H](CC(C)C)C(=O)N[C@@H](CC(C)C)C(=O)N[C@@H](CC(C)C)C(=O)N[C@@H](Cc1c[nH]cn1)C(=O)N[C@@H](C)C(=O)N[C@@H](C)C(=O)NCC(=O)N[C@@H](Cc1c[nH]c2ccccc12)C(N)=O [HHH] (H-GLLHLLHLLLHAAGW-NH2),21.1 ± 6.93 µM,9.5 ± 0.99 µM,79 ± 11.3 µM,185 ± 7 µM,30.6 ± 4.81 µM,0.82 L/P,0.46 L/P,50 L/P,173 L/P,469 L/P,1133 L/P,–
